From publication PMC10143822, “Structural Adaptation of the Single-Stranded DNA-Binding Protein C-Terminal to DNA Metabolizing Partners Guides Inhibitor Design” (Pharmaceutics, 2023)
Read-outs that look alike come from different tables or passages of the source. Where a SMILES comes first, the peptide text is derived from it. [ ]: non-standard residue; d: D form. Phe(4-CF3) = N[C@@H](Cc1ccc(C(F)(F)F)cc1)C(=O)O; Phe(3-Cl) = N[C@@H](Cc1cccc(Cl)c1)C(=O)O; Phe(4-Cl) = N[C@@H](Cc1ccc(Cl)cc1)C(=O)O; Phe(4-F) = N[C@@H](Cc1ccc(F)cc1)C(=O)O; NMeF = CN[C@@H](Cc1ccccc1)C(=O)O; NMeI = CC[C@H](C)[C@H](NC)C(=O)O; 3Pal = N[C@@H](Cc1cccnc1)C(=O)O; 2Thi = N[C@@H](Cc1cccs1)C(=O)O; NMeD = CN[C@@H](CC(=O)O)C(=O)O; Aib = CC(C)(N)C(=O)O

Key:
[1] = molecular target: T1, ExoI (Escherichia coli, UniProt P04995); assay: biochemical; type: binding, E. coli
T1 construct: His-tag (cleaved yes); host or cells: E. coli BL21 (DE3) pLysS
Procedure: (§1) Triplicate measurements were performed using a Clariostar Plus Microplate Reader in 384-well plates for all fluorescence anisotropy (FA) experiments. The settings were 25 °C, excitation at 485 nm, emission at 510 nm, settling time of 0.2 s, and 200 flashes per well.
(§2) Competition fluorescence anisotropy experiments were carried out as follows: protein (0.5 μM either ExoI or RecO) was incubated with 50 nM F-wtSSB peptide and 0–500 μM unlabeled wtSSB (or a variant) peptide for 30 min at room temperature. For direct fluorescence anisotropy measurements, 16 µM ExoI and 7.5 µM RecO were used in the first well. After serial dilution, either 50 nM of F-mSSB or F-sSSB was added to the wells and then incubated for 30 min. Buffers used included 20 mM Tris-HCl (pH 8.0), 100 mM NaCl, 1 mM MgCl2, 1 mM 2-mercaptoethanol, 10% (v/v) glycerol, for ExoI and 20 mM Tris-HCl (pH 8.0), 200 mM NaCl, 1 mM 2-mercaptoethanol, 10% (v/v) glycerol, and 0.01% Triton-X 100 for RecO [37].
(§3) Fluorescence anisotropy values were normalized and are shown as bound fractions (BF, %). BF=r−rmin/λ(rmax−r)+r−rmin, I=2∗PG+S, r=S−PG/I, where r: anisotropy, I: total intensity, P: perpendicular intensity, S: parallel intensity, G: an instrument factor set to 1, BF: ligand fraction bound, and λ=λbound/λunbound=1 .
(§4) Competitive fluorescence anisotropy was analyzed in Origin Pro 9.5, and IC50 values were determined using the Logistic Nonlinear fit function and are shown as plots for each mutated position for each protein in Figures S4 and S6. EC50 values from direct fluorescence anisotropy titrations were plotted in Origin 9.5. Values were determined using the Logistics Nonlinear fit function.

[2] = molecular target: T2, RecO (Escherichia coli, UniProt P0A7H3); assay: biochemical; type: binding; details: 0.5 μM RecO, 50 nM F-wtSSB tracer
T2 construct: His-tag (TEV site) (N, cleaved yes); made in house; host or cells: E. coli Rosetta cells
T2 sequence (P0A7H3 whole entry): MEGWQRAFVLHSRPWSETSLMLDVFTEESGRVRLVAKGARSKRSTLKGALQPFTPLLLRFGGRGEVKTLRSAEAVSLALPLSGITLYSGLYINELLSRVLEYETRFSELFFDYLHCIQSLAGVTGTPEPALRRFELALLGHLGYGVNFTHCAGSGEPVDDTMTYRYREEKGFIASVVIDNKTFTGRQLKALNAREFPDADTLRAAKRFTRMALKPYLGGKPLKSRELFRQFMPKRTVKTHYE
Procedure: as §1, §2, §3, §4

[3] = 0–500 μM unlabeled peptide, 30 min room temperature, 20 mM Tris-HCl pH 8.0, 200 mM NaCl, 10% glycerol, 0.01% Triton-X 100, 25 °C, triplicate, read-out: IC50 on RecO, competitive fluorescence anisotropy

Row | SMILES | IC50 [1] [µM] | IC50 [2, 3] [mM] | IC50 ([2]; bound given in mM, read-out: IC50 on RecO, competitive fluorescence anisotropy (no direct inhibitory effect detected)) [mM]
1 | CC[C@H](C)[C@H](NC(=O)[C@H](CC(=O)O)NC(=O)[C@H](CC(=O)O)NC(=O)[C@H](CC(=O)O)NC(=O)[C@H](Cc1cccc(Cl)c1)NC(=O)[C@H](CC(=O)O)NC(C)=O)C(=O)N1CCC[C@H]1C(=O)N[C@@H](Cc1ccccc1)C(=O)O [3-Cl-Phe2] (Ac-D[Phe(3-Cl)]DDDIPF-OH) | 2.03 ± 0.51 | 0.00344 ± 0.00014 | 
2 | CC[C@H](C)[C@H](NC(=O)[C@H](CC(=O)O)NC(=O)[C@H](CC(=O)O)NC(=O)[C@H](CC(=O)O)NC(=O)[C@H](Cc1cccnc1)NC(=O)[C@H](CC(=O)O)NC(C)=O)C(=O)N1CCC[C@H]1C(=O)N[C@@H](Cc1ccccc1)C(=O)O [3Pal2] (Ac-D[3Pal]DDDIPF-OH) | 7.47 ± 0.88 | 0.0117 ± 0.0008 | 
3 | CC[C@H](C)[C@H](NC(=O)[C@H](CC(=O)O)NC(=O)[C@H](CC(=O)O)NC(=O)[C@H](CC(=O)O)NC(=O)[C@H](Cc1ccccc1)NC(=O)[C@H](CC(=O)O)NC(C)=O)C(=O)N1CCC[C@H]1C(=O)N[C@@H](Cc1cccnc1)C(=O)O [3Pal8] (Ac-DFDDDIP[3Pal]-OH) | 19.9 ± 2.81 | 0.0319 ± 0.00416 | 
4 | CC[C@H](C)[C@H](NC(=O)[C@H](CC(=O)O)NC(=O)[C@H](CC(=O)O)NC(=O)[C@H](CC(=O)O)NC(=O)[C@H](Cc1ccc(C(F)(F)F)cc1)NC(=O)[C@H](CC(=O)O)NC(C)=O)C(=O)N1CCC[C@H]1C(=O)N[C@@H](Cc1ccccc1)C(=O)O [4-CF3-Phe2] (Ac-D[Phe(4-CF3)]DDDIPF-OH) |  | 0.00327 ± 0.00042 | 
5 | CC[C@H](C)[C@H](NC(=O)[C@H](CC(=O)O)NC(=O)[C@H](CC(=O)O)NC(=O)[C@H](CC(=O)O)NC(=O)[C@H](Cc1ccc(Cl)cc1)NC(=O)[C@H](CC(=O)O)NC(C)=O)C(=O)N1CCC[C@H]1C(=O)N[C@@H](Cc1ccccc1)C(=O)O [4-Cl-Phe2] (Ac-D[Phe(4-Cl)]DDDIPF-OH) |  | 0.00238 ± 0.00027 | 
6 | CC[C@H](C)[C@H](NC(=O)[C@H](CC(=O)O)NC(=O)[C@H](CC(=O)O)NC(=O)[C@H](CC(=O)O)NC(=O)[C@H](Cc1ccccc1)NC(=O)[C@H](CC(=O)O)NC(C)=O)C(=O)N1CCC[C@H]1C(=O)N[C@@H](Cc1ccc(Cl)cc1)C(=O)O [4-Cl-Phe8] (Ac-DFDDDIP[Phe(4-Cl)]-OH) | 1.41 ± 0.18 | 0.00362 ± 0.00084 | 
7 | CC[C@H](C)[C@H](NC(=O)[C@H](CC(=O)O)NC(=O)[C@H](CC(=O)O)NC(=O)[C@H](CC(=O)O)NC(=O)[C@H](Cc1ccc(F)cc1)NC(=O)[C@H](CC(=O)O)NC(C)=O)C(=O)N1CCC[C@H]1C(=O)N[C@@H](Cc1ccccc1)C(=O)O [4-F-Phe2] (Ac-D[Phe(4-F)]DDDIPF-OH) |  | 0.00305 ± 0.00028 | 
8 | CC[C@H](C)[C@H](NC(=O)[C@H](CC(=O)O)NC(=O)[C@H](CC(=O)O)NC(=O)[C@H](CC(=O)O)NC(=O)[C@H](Cc1ccccc1)NC(=O)[C@H](CC(=O)O)NC(C)=O)C(=O)N1CCC[C@H]1C(=O)N[C@@H](Cc1ccc(F)cc1)C(=O)O [4-F-Phe8] (Ac-DFDDDIP[Phe(4-F)]-OH) | 3.04 ± 0.64 | 0.00407 ± 0.00798 | 
9 | CC(=O)N[C@@H](CC(=O)O)C(=O)N[C@@H](Cc1ccccc1)C(=O)N[C@@H](CC(=O)O)C(=O)N[C@@H](CC(=O)O)C(=O)N[C@@H](CC(=O)O)C(=O)NC(C)(C)C(=O)N1CCC[C@H]1C(=O)N[C@@H](Cc1ccccc1)C(=O)O [Aib6] (Ac-DFDDD[Aib]PF-OH) | 27.6 ± 7.9 |  | 
10 | CC[C@H](C)[C@H](NC(=O)[C@H](CC(=O)O)NC(=O)[C@H](CC(=O)O)NC(=O)[C@H](CC(=O)O)NC(=O)[C@H](Cc1ccccc1)NC(=O)[C@@H](CC(=O)O)NC(C)=O)C(=O)N1CCC[C@H]1C(=O)N[C@@H](Cc1ccccc1)C(=O)O [D-Asp1] (Ac-[dD]FDDDIPF-OH) | 5.55 ± 0.19 | 0.00656 ± 0.0014 | 
11 | CC[C@H](C)[C@H](NC(=O)[C@H](CC(=O)O)NC(=O)[C@H](CC(=O)O)NC(=O)[C@@H](CC(=O)O)NC(=O)[C@H](Cc1ccccc1)NC(=O)[C@H](CC(=O)O)NC(C)=O)C(=O)N1CCC[C@H]1C(=O)N[C@@H](Cc1ccccc1)C(=O)O [D-Asp3] (Ac-DF[dD]DDIPF-OH) | 6.82 ± 0.53 | 0.00456 ± 0.00153 | 
12 | CC[C@H](C)[C@H](NC(=O)[C@H](CC(=O)O)NC(=O)[C@@H](CC(=O)O)NC(=O)[C@H](CC(=O)O)NC(=O)[C@H](Cc1ccccc1)NC(=O)[C@H](CC(=O)O)NC(C)=O)C(=O)N1CCC[C@H]1C(=O)N[C@@H](Cc1ccccc1)C(=O)O [D-Asp4] (Ac-DFD[dD]DIPF-OH) | 3.08 ± 0.07 | 0.00592 ± 0.00091 | 
13 | CC[C@@H](C)[C@@H](NC(=O)[C@H](CC(=O)O)NC(=O)[C@H](CC(=O)O)NC(=O)[C@H](CC(=O)O)NC(=O)[C@H](Cc1ccccc1)NC(=O)[C@H](CC(=O)O)NC(C)=O)C(=O)N1CCC[C@H]1C(=O)N[C@@H](Cc1ccccc1)C(=O)O [D-Ile6] (Ac-DFDDD[dI]PF-OH) | 56 ± 18.4 |  | 
14 | CC[C@H](C)[C@H](NC(=O)[C@H](CC(=O)O)NC(=O)[C@H](CC(=O)O)NC(=O)[C@H](CC(=O)O)NC(=O)[C@@H](Cc1ccccc1)NC(=O)[C@H](CC(=O)O)NC(C)=O)C(=O)N1CCC[C@H]1C(=O)N[C@@H](Cc1ccccc1)C(=O)O [D-Phe2] (Ac-D[dF]DDDIPF-OH) | 3.49 ± 2.41 | 0.00275 ± 0.00059 | 
15 | CC[C@H](C)[C@H](NC(=O)[C@H](CC(=O)O)NC(=O)[C@H](CC(=O)O)NC(=O)[C@H](CC(=O)O)NC(=O)[C@H](Cc1ccccc1)NC(=O)[C@H](CC(=O)O)NC(C)=O)C(=O)N1CCC[C@@H]1C(=O)N[C@@H](Cc1ccccc1)C(=O)O [D-Pro7] (Ac-DFDDDI[dP]F-OH) | 61.5 ± 16.2 | 0.0116 ± 0.0109 | 
16 | CC(=O)N[C@@H](CC(=O)O)C(=O)N[C@@H](Cc1ccccc1)C(=O)N[C@@H](CC(=O)O)C(=O)N[C@@H](CC(=O)O)C(N)=O [DFDD] (Ac-DFDD-NH2) | 312 ± 16.7 |  | > 3
17 | CC[C@H](C)[C@H](NC(=O)[C@H](CC(=O)O)NC(=O)[C@H](CC(=O)O)NC(=O)[C@H](CC(=O)O)NC(=O)[C@H](Cc1ccccc1)NC(=O)[C@H](CC(=O)O)N(C)C(C)=O)C(=O)N1CCC[C@H]1C(=O)N[C@@H](Cc1ccccc1)C(=O)O [NM-Asp1] (Ac-[NMeD]FDDDIPF-OH) | 2.17 ± 0.15 | 0.0051 ± 0.00064 | 
18 | CC[C@H](C)[C@H](NC(=O)[C@H](CC(=O)O)NC(=O)[C@H](CC(=O)O)N(C)C(=O)[C@H](CC(=O)O)NC(=O)[C@H](Cc1ccccc1)NC(=O)[C@H](CC(=O)O)NC(C)=O)C(=O)N1CCC[C@H]1C(=O)N[C@@H](Cc1ccccc1)C(=O)O [NM-Asp4] (Ac-DFD[NMeD]DIPF-OH) | 1.27 ± 0.14 | 0.00385 ± 0.00103 | 
19 | CC[C@H](C)[C@H](NC(=O)[C@H](CC(=O)O)N(C)C(=O)[C@H](CC(=O)O)NC(=O)[C@H](CC(=O)O)NC(=O)[C@H](Cc1ccccc1)NC(=O)[C@H](CC(=O)O)NC(C)=O)C(=O)N1CCC[C@H]1C(=O)N[C@@H](Cc1ccccc1)C(=O)O [NM-Asp5] (Ac-DFDD[NMeD]IPF-OH) | 9.3 ± 0.66 | 0.00933 ± 0.0043 | 
20 | CC[C@H](C)[C@@H](C(=O)N1CCC[C@H]1C(=O)N[C@@H](Cc1ccccc1)C(=O)O)N(C)C(=O)[C@H](CC(=O)O)NC(=O)[C@H](CC(=O)O)NC(=O)[C@H](CC(=O)O)NC(=O)[C@H](Cc1ccccc1)NC(=O)[C@H](CC(=O)O)NC(C)=O [NM-Ile6] (Ac-DFDDD[NMeI]PF-OH) | 3.95 ± 0.54 |  | 
21 | CC[C@H](C)[C@H](NC(=O)[C@H](CC(=O)O)NC(=O)[C@H](CC(=O)O)NC(=O)[C@H](CC(=O)O)NC(=O)[C@H](Cc1ccccc1)N(C)C(=O)[C@H](CC(=O)O)NC(C)=O)C(=O)N1CCC[C@H]1C(=O)N[C@@H](Cc1ccccc1)C(=O)O [NM-Phe2] (Ac-D[NMeF]DDDIPF-OH) | 5.37 ± 0.53 | 0.00333 ± 0.00035 | 
22 | CC[C@H](C)[C@H](NC(=O)[C@H](CC(=O)O)NC(=O)[C@H](CC(=O)O)NC(=O)[C@H](CC(=O)O)NC(=O)[C@H](Cc1ccccc1)NC(=O)[C@H](CC(=O)O)NC(C)=O)C(=O)N1CCC[C@H]1C(=O)N(C)[C@@H](Cc1ccccc1)C(=O)O [NM-Phe8] (Ac-DFDDDIP[NMeF]-OH) |  | 0.0647 ± 0.0189 | 
23 | CC(=O)N[C@@H](CC(=O)O)C(=O)N[C@@H](Cc1ccc(Cl)cc1)C(=O)N(C)[C@@H](CC(=O)O)C(=O)N[C@@H](CC(=O)O)C(=O)N[C@@H](CCC(=O)O)C(=O)N[C@@H](CC(C)C)C(=O)N1CCC[C@H]1C(=O)N[C@@H](Cc1cccc(Cl)c1)C(=O)O [R1-sSSB-Ct] (Ac-D[Phe(4-Cl)][NMeD]DELP[Phe(3-Cl)]-OH) |  | 0.00333 | 
24 | CC[C@H](C)[C@H](NC(=O)[C@H](CC(=O)O)NC(=O)[C@H](CC(=O)O)NC(=O)[C@H](CC(=O)O)NC(=O)[C@H](Cc1cccs1)NC(=O)[C@H](CC(=O)O)NC(C)=O)C(=O)N1CCC[C@H]1C(=O)N[C@@H](Cc1ccccc1)C(=O)O [Thi2] (Ac-D[2Thi]DDDIPF-OH) | 4.22 ± 0.81 | 0.00527 ± 0.00028 | 
